As usually defined, the IC50 is the concentration that inhibits the measured activity by half. Low readings indicate inhibition by little substance, high ones a need for much substance.

Data on 14 compounds can be found in US11702422B2, “Imidazopyridazines as modulators of IL-17” (Janssen Pharmaceutica NV, priority 2020, dated 2023).

Test [1] has as its target IL-17A(FLAG-Tagged): IL-17RA(His-Tagged) (Homo sapiens, UniProt Q16552, K93Q). The test can be described thus: IL-17A(FLAG-Tagged): IL-17RA(His-Tagged) Binding Disruption Eu-HTRF Assay. As to conditions: IL-17A/IL-17RA binding disruption, simple average if tested more than once. The text has this: IL-17A(FLAG-Tagged): IL-17RA(His-Tagged) Binding Disruption Eu-HTRF Assay
An antibody directed against the FLAG tag of IL-17A (SEQ ID NO:1) is labeled with the HTRF donor chromophore (Europium-cryptate). IL-17A is present as a dimer that is “locked into” this quaternary structure due to the formation of loop-spanning […] disulfide bridges. The construct of IL-17RA used in the assay excludes the […] portion of the receptor and is fused to a C-terminal 10×His tag (SEQ ID NO:2). An antibody directed against the His tag of the IL-17RA chimera is labeled with the HTRF acceptor chromophore (“D2”). The fluorescence-resonance energy transfer (FRET) depends on the vicinity of the donor chromophore to the acceptor, and interruption of the binding between the IL-17A and IL-17RA causes the reduction/loss of FRET. Therefore, this assay allows to evaluate the compound effect on the binding IL-17A and IL-17RA by monitoring the fluorescence intensity of donor vs acceptor. The assay is run as described below.
40 nl of 2-fold serial diluted compound solution for total 22 dilution points is added into each well of a 1536-well, white, low-volume, non-binding plate (Greiner #782904), then 2 μl of FLAG tagged IL-17A at 2× final concentration (2.5 nM) in solution of PBS+0.01% Triton-X100 is added to each well. The assay plate is briefly centrifuged then incubated for 1 h at rt. A mixed solution is prepared containing 2×5 nM 10HIS×IL-17RA, 2×2.5 nM Eu-anti-FLAG (CISBIO), 2×5 nM D2-anti-HIS (CISBIO) in PBS+0.01% Triton-X100+200 mM Potassium Fluoride (Sigma 60238) and 2 μl of mix is added to each well of the assay plate. The plate is briefly centrifuged then incubated for 2 h at rt. The HTRF intensities at the wavelength of donor (620 nm) and acceptor (665 nm) are measured using BMG Pherastar. The ratio between intensities at two wavelengths is calculated and plotted against the compound concentration and the data is fitted to a one-site competition model to yield IC50 of the compound.
For orientation: TR-FRET usually uses a lanthanide donor and a delayed reading to cut background.

Test [2] deals with IL-17A-induced G-CSF production in human normal keratinocyte (NHK). The test is described as follows: NHK Assay: IL-17A-induced G-CSF production in human normal keratinocytes. The format is cell-based. As to conditions: Homo sapiens, Keratinocyte, 24 h, adult normal human keratinocytes, IL-17A 5 ng/mL, simple average if tested more than once. How it is done:
IL-17A acts directly on keratinocytes through binding to dimeric receptor IL-17RA/RC and drives the production of a number of inflammatory mediators known to be elevated in psoriasis lesional tissue. IL-17A small molecule inhibitors that block the IL-17A to interact with IL-17R would inhibit the IL-17A signaling in its targeted cells such as keratinocytes. The compound functional activity is evaluated for its impact on IL-17A-induced G-CSF production in human normal keratinocyte (NHK).
Adult normal human keratinocytes are cultured in keratinocyte growth medium (Lonza) in a flask till reaching ˜ 90% confluence, then cells are transferred to a 384-well plate at density of 3000-4000 cell/well. Recombinant human IL-17A (Gibco PHC9174) is pre-incubated with titrated compound or DMSO for 1 h at rt then added to the cell culture plate. The final concentration of IL-17A is 5 ng/mL and DMSO is 0.2%, in the culture containing 5% FBS. Cells are cultured/treated for 24 h at 37° C. Supernatants are collected and G-CSF production is measured through HTRF technology using Human G-CSF Kit (CisBio). G-CSF concentration was extrapolated from the standard curve and IC50 is determined using GraphPad Prism. Cell viability is also evaluated using CellTiter-Glo kit (Promega) and effect of compound on cell viability is compared to DMSO control.

Where a name gives a salt, the structure may show the parent alone. Some results are limits rather than exact numbers.

Chain of UniProt Q16552 (Q16552 with tags, fused parts or gaps K93Q): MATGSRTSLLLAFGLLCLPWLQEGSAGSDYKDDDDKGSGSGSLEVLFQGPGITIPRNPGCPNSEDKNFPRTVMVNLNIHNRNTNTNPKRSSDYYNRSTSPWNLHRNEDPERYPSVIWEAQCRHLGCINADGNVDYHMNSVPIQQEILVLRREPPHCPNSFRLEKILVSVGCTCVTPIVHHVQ

For the compound `O=C(N[C@H](c1cn2ncc(CNC(=O)[C@@H]3NCCC[C@H]3C(F)(F)F)cc2n1)C1CCCCC1)c1ccccc1` (relative stereo) [Example 1, (Trans-2R*,3R*)—N-((2-((S)-benzamido(cyclohexyl)methyl)imidazo[1,2-b]pyridazin-7-yl)methyl)-3-(trifluoromethyl)piperidine-2-carboxamide hydrochloride], the IC50 in test [1] is 180 nM; in test [2] it was 300 nM.

For `O=C(N[C@H](c1cn2ncc(CNC(=O)[C@H]3NCCC[C@@H]3C(F)(F)F)cc2n1)C1CCCCC1)c1ccccc1` (relative stereo) [Example 2, (Trans-2S*,3S*)—N-((2-((S)-benzamido(cyclohexyl)methyl)imidazo[1,2-b]pyridazin-7-yl)methyl)-3-(trifluoromethyl)piperidine-2-carboxamide hydrochloride], the IC50 in test [1] is 7600 nM; in test [2], over 20000 nM.

With `Cn1nccc1C(=O)N[C@H](c1cn2ncc(CNC(=O)[C@@H]3NCCC[C@H]3C(F)(F)F)cc2n1)C1CCCCC1` (relative stereo) [Example 3, (Trans-2R*,3R*)—N-((2-((S)-cyclohexyl(1-methyl-1H-pyrazole-5-carboxamido)methyl)imidazo[1,2-b]pyridazin-7-yl)methyl)-3-(trifluoromethyl)piperidine-2-carboxamide hydrochloride], the IC50 in test [1] is 97 nM; in test [2], 300 nM.

As for `O=C(N[C@H](c1cn2ncc([C@H](NC(=O)[C@@H](O)CC(F)(F)F)C3CC3)cc2n1)C1CCC(F)(F)CC1)c1cnn(CC(F)(F)F)n1` (relative stereo) [Example 31, N—((S)-(7-((R*)-Cyclopropyl((S*)-4,4,4-trifluoro-2-hydroxybutanamido)methyl)imidazo[1,2-b]pyridazin-2-yl)(4,4-difluorocyclohexyl)methyl)-2-(2,2,2-trifluoroethyl)-2H-1,2,3-triazole-4-carboxamide], the results for the IC50 in test [1] and in test [2] were 360 nM and 1300 nM, respectively.

For the compound `CC(C)n1nccc1C(=O)N[C@H](c1cn2ncc([C@H](NC(=O)C[C@@H](O)C(F)(F)F)C3CC3)cc2n1)C1CCC(F)(F)CC1` (relative stereo) [Example 130, N—((S)-(7-((R*)-Cyclopropyl((R*)-4,4,4-trifluoro-3-hydroxybutanamido)methyl)imidazo[1,2-b]pyridazin-2-yl)(4,4-difluorocyclohexyl)methyl)-1-isopropyl-1H-pyrazole-5-carboxamide], the IC50 in test [1] is 270 nM; in test [2] it was 390 nM.

Regarding `CC(C)n1nccc1C(=O)N[C@H](c1cn2ncc([C@H](NC(=O)C[C@H](O)C(F)(F)F)C3CC3)cc2n1)C1CCC(F)(F)CC1` (relative stereo) [Example 131, N—((S)-(7-((R*)-Cyclopropyl((S*)-4,4,4-trifluoro-3-hydroxybutanamido)methyl)imidazo[1,2-b]pyridazin-2-yl)(4,4-difluorocyclohexyl)methyl)-1-isopropyl-1H-pyrazole-5-carboxamide], the IC50 was found to be 87 nM in test [1] and 100 nM in test [2].

Take `CC(C)n1nccc1C(=O)N[C@H](c1cn2ncc([C@H](NC(=O)C[C@@](C)(O)C(F)(F)F)C3CC3)cc2n1)C1CCC(F)(F)CC1` (relative stereo) [Example 132, N—((S)-(7-((R*)-Cyclopropyl((R*)-4,4,4-trifluoro-3-hydroxy-3-methylbutanamido)methyl)imidazo[1,2-b]pyridazin-2-yl)(4,4-difluorocyclohexyl)methyl)-1-isopropyl-1H-pyrazole-5-carboxamide]: the IC50 was 220 nM in test [1] and 260 nM in test [2].

With `CC(C)n1nccc1C(=O)N[C@H](c1cn2ncc([C@H](NC(=O)C[C@](C)(O)C(F)(F)F)C3CC3)cc2n1)C1CCC(F)(F)CC1` (relative stereo) [Example 133, N—((S)-(7-((R*)-Cyclopropyl((S*)-4,4,4-trifluoro-3-hydroxy-3-methylbutanamido)methyl)imidazo[1,2-b]pyridazin-2-yl)(4,4-difluorocyclohexyl)methyl)-1-isopropyl-1H-pyrazole-5-carboxamide], the values for the IC50 in test [1] and in test [2] were 150 nM and 360 nM, respectively.

Consider `O=C(CC1CC(F)(F)C1)N[C@@H](c1cnn2cc([C@@H](NC(=O)[C@H]3C[C@@H]3C(F)(F)F)C3CCC(F)(F)CC3)nc2c1)C1CC1` (relative stereo) [Example 143, (Trans-1S*,2S*)—N—((S)-(7-((R)-Cyclopropyl(2-(3,3-difluorocyclobutyl)acetamido)methyl)imidazo[1,2-b]pyridazin-2-yl)(4,4-difluorocyclohexyl)methyl)-2-(trifluoromethyl)cyclopropane-1-carboxamide], for which the IC50 in test [1] was 130 nM; in test [2], 450 nM.

Regarding `O=C(CC1CC(F)(F)C1)N[C@@H](c1cnn2cc([C@@H](NC(=O)[C@@H]3C[C@H]3C(F)(F)F)C3CCC(F)(F)CC3)nc2c1)C1CC1` (relative stereo) [Example 144, (Trans-1R*,2R*)—N—((S)-(7-((R)-Cyclopropyl(2-(3,3-difluorocyclobutyl)acetamido)methyl)imidazo[1,2-b]pyridazin-2-yl)(4,4-difluorocyclohexyl)methyl)-2-(trifluoromethyl)cyclopropane-1-carboxamide], the IC50 in test [1] stood at 1400 nM; in test [2] it was 7000 nM.

On to `O=C(CCC(F)(F)F)N[C@@H](c1cnn2cc([C@@H](NC(=O)[C@H]3C[C@@H]3C(F)(F)F)C3CCC(F)(F)CC3)nc2c1)C1CC1` (relative stereo) [Example 149, (Trans-1S*,2S*)—N—((S)-(7-((R)-Cyclopropyl(4,4,4-trifluorobutanamido)methyl)imidazo[1,2-b]pyridazin-2-yl)(4,4-difluorocyclohexyl)methyl)-2-(trifluoromethyl)cyclopropane-1-carboxamide], for which the IC50 in test [1] came out at 240 nM; in test [2], 510 nM.

In the case of `O=C(CCC(F)(F)F)N[C@@H](c1cnn2cc([C@@H](NC(=O)[C@@H]3C[C@H]3C(F)(F)F)C3CCC(F)(F)CC3)nc2c1)C1CC1` (relative stereo) [Example 150, (Trans-1R*, 2R*)—N—((S)-(7-((R)-Cyclopropyl(4,4,4-trifluorobutanamido)methyl)imidazo[1,2-b]pyridazin-2-yl)(4,4-difluorocyclohexyl)methyl)-2-(trifluoromethyl)cyclopropane-1-carboxamide], the concentration for half-maximal inhibition (IC50) in test [1] is 1300 nM; in test [2], over 20000 nM.

Turning to `C[C@H](CC(=O)N[C@@H](c1cnn2cc([C@@H](NC(=O)[C@@H]3C[C@H]3C(F)(F)F)C3CCC(F)(F)CC3)nc2c1)C1CC1)C(F)(F)F` (relative stereo) [Example 241, (trans-1R*,2R*)—N—((S)-(7-((R)-Cyclopropyl((R*)-4,4,4-trifluoro-3-methylbutanamido)methyl)imidazo[1,2-b]pyridazin-2-yl)(4,4-difluorocyclohexyl)methyl)-2-(trifluoromethyl)cyclopropane-1-carboxamide], the IC50 in test [1] was 3400 nM; in test [2], over 20000 nM.

Take `C[C@@H](CC(=O)N[C@@H](c1cnn2cc([C@@H](NC(=O)[C@@H]3C[C@H]3C(F)(F)F)C3CCC(F)(F)CC3)nc2c1)C1CC1)C(F)(F)F` (relative stereo) [Example 242, (trans-1R*,2R*)—N—((S)-(7-((R)-Cyclopropyl((S*)-4,4,4-trifluoro-3-methylbutanamido)methyl)imidazo[1,2-b]pyridazin-2-yl)(4,4-difluorocyclohexyl)methyl)-2-(trifluoromethyl)cyclopropane-1-carboxamide]: the IC50 in test [1] turned out to be 1300 nM; in test [2], 790 nM.
